Laboratory results taken from ChEMBL document CHEMBL5385976, “Recognition of arylmethylidene derivatives of imidazothiazolotriazinones as novel tubulin polymerization inhibitors” (RSC Med Chem, 2024).
Activity calls are given as the source filed them. The calls are words filed in the database; no cut-off is given here.

Columns and labels:
[1] = system: HT-29; test: Inhibition of cell growth in human HT-29 cells incubated for 72 hrs by MTT assay; format: functional, cell-based; conditions: HT-29, 72 h
[2] = system: COLO357; test: Inhibition of cell growth in human COLO357 cells incubated for 72 hrs by MTT assay; format: functional, cell-based
[3] = system: SK-MEL-28; test: Anticancer activity against human SK-MEL-28 cells assessed as cell growth at 10 umol/L incubated for 48 hrs by SRB assay relative to control; format: functional; conditions: SK-MEL-28, 48 h, dose 10 µmol/L, read-out: Activity
[4] = system: HT-29; test: Downregulation of beta-actin level in human HT-29 cells upto 100 uM incubated for 48 hrs by Western blot analysis; format: functional, cell-based
[5] = system: K562; test: Antiproliferative activity against human K562 cells assessed as mean cell growth at 10 uM incubated for 48 hrs by SRB assay relative to control; format: functional
[6] = system: Panc02; test: Inhibition of cell growth in mouse Panc02 cells incubated for 72 hrs by MTT assay; format: functional
[7] = biological target: T1, Tubulin (Homo sapiens) (UniProt P68371+Q9H4B7+P0DPH7+P68366+Q13509+Q71U36+P04350+Q3ZCM7+P07437+P68363+Q9BQE3+Q6PEY2+Q13885+Q9BVA1+Q9BUF5); test: Inhibition of tubulin polymerization in human HT-29 cells upto 100 uM incubated for 48 hrs by Western blot analysis; format: cell-based
[8] = system: T47D; test: Anticancer activity against human T47D cells assessed as cell growth at 10 umol/L incubated for 48 hrs by SRB assay relative to control; format: functional; conditions: dose 10 µmol/L, read-out: Activity
[9] = system: Panel NCI-60 (60 carcinoma cell lines); test: Antiproliferative activity against human panel NCI-60 (60 carcinoma cell lines) incubated for 48 hrs by SRB assay; format: functional
[10] = system: OVCAR-8; test: Anticancer activity against human OVCAR-8 cells assessed as cell growth at 10 umol/L incubated for 48 hrs by SRB assay relative to control; format: functional; conditions: OVCAR-8, 48 h, dose 10 µmol/L, read-out: Activity
[11] = system: Panel NCI-60 (60 carcinoma cell lines); test: Antiproliferative activity against human panel NCI-60 (60 carcinoma cell lines) assessed as total inhibition of cell growth incubated for 48 hrs by SRB assay; format: functional
[12] = Inhibition of cell growth in human HaCaT cells incubated for 72 hrs by MTT assay; format: toxicity, cell-based
[13] = biological target: T1, Tubulin (Homo sapiens); test: Inhibition of tubulin polymerization in human K562 cells at 0.5 uM incubated for 24 hrs by confocal microscopy; format: cell-based
[14] = system: K562; test: Inhibition of cell growth in human K562 cells incubated for 72 hrs by MTT assay; format: functional, cell-based
[15] = system: OVCAR-3; test: Anticancer activity against human OVCAR-3 cells assessed as cell growth at 10 umol/L incubated for 48 hrs by SRB assay relative to control; format: functional; conditions: OVCAR-3, 48 h, dose 10 µmol/L, read-out: Activity
[16] = system: NCI-H226; test: Antiproliferative activity against human NCI-H226 cells assessed as mean cell growth at 10 uM incubated for 48 hrs by SRB assay relative to control; format: functional

Row | Structure (SMILES) | IC50 [1] [nM] | IC50 ([2]; COLO357, 72 h) [nM] | GI50 ([2]; COLO357, time 72 hrs) [nM] | growth at 10 µM [3] [%] | Activity [4] | Activity [5] [%] | GI50 [6] [nM] | inhibition [7] | growth at 10 µM [8] [%] | GI50 [9] [nM] | LC50 [9] [nM] | growth at 10 µM [10] [%] | GI [11] [µM] | IC50 at 72 h [12] [nM] | inhibition [13] | IC50 ([14]; K562, 72 h) [nM] | GI50 ([14]; K562, time 72 hrs) [nM] | growth at 10 µM [15] [%] | Activity [16] [%]
1 | CCN1C(=O)N(CC)C2C1NN=c1s/c(=C\c3ccc(Cl)cc3Cl)c(=O)n12 (centres undefined) | 5.5 | 6 | 16 | 45.7 | Active | 18 | 16 | Active | 58.8 | 80 | > 96400 | 10.8 | >66.8 | 3.5 | Active | 2 | 0.64 | 13.4 | 
2 | COc1cc2c(c(OC)c1OC)-c1ccc(OC)c(=O)cc1[C@@H](NC(C)=O)CC2 [COLCHICINE] |  |  |  |  |  |  |  |  |  |  |  |  |  |  |  |  |  |  | 8
